Measured values published in US9499550B2 (BRISTOL-MYERS SQUIBB COMPANY, priority 2012, dated 2016).
Where two headings read alike, the source gives them in different places.

Assays:
[1] = tested on: HCV genotype 1a (H77 strain) replicon in HUH-7 cells; assay: HCV replicon luciferase reporter assay, genotype 1a; assay type: cell-based; details: Hepatitis C virus, Huh-7, 72 h, HCV genotype 1a replicon luciferase, 3 days incubation
Outline: (§1)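 Replicon inhibition for both genotypes was measured as Renilla luciferase signal (EnduRen, 7.5 μM final, 2 h) after 3-day, 37° C exposure of replicon-bearing HUH-7 cells in 4% FCS DMEM, 0.5% DMSO. The 1b construct carries S1179I; the 1a H77 construct carries P1496L and S2204I. Twenty-point, 3-fold dilutions were fitted four-parametrically for EC50, and CC50 was taken from multiplexed Cell Titer-Blue.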

[2] = tested on: HCV genotype 1b (Con1) replicon in HUH-7 cells; assay: HCV replicon luciferase reporter assay, genotype 1b; assay type: cell-based; details: Hepatitis C virus, Huh-7, 72 h, HCV genotype 1b replicon luciferase, 3 days incubation
Outline: as §1

Compound | EC50 ([1]; read-out: LE_1a (EC50, range)) [nM] | EC50 ([2]; read-out: LE_1b (EC50, range)) [nM] | EC50 ([1]; read-out: LE_1a (EC50)) [nM] | EC50 ([2]; read-out: LE_1b (EC50)) [nM]
CCOc1cnc(O[C@@H]2C[C@H]3C(=O)N[C@]4(C(=O)NS(=O)(=O)C5(C)CC5)C[C@H]4/C=C\CC[C@@H](C)C[C@@H](C)[C@H](NC(=O)O[C@H](C)C(F)(F)F)C(=O)N3C2)c2ccccc12 [Compound 4066, (R)-1,1,1-trifluoropropan-2-yl (2R,6S,7R,9R,13aS,14aR,16aS,Z)-2-(4-ethoxyisoquinolin-1-yloxy)-7,9-dimethyl-14a-(1-methylcyclopropylsulfonylcarbamoyl)-5,16-dioxo-1,2,3,5,6,7,8,9,10,11,13a,14,14a,15,16,16a-hexadecahydrocyclopropa[e]pyrrolo[1,2-a][1,4]diazacyclopentadecin-6-ylcarbamate] | < 5.46 | < 5.46 |  | 
CCn1nc(O[C@@H]2C[C@H]3C(=O)N[C@]4(C(=O)NS(=O)(=O)C5CC5)C[C@H]4/C=C\CC[C@H](C)C[C@@H](C)[C@H](NC(=O)NC(C)(C)C)C(=O)N3C2)c2ccccc2c1=O [Compound 5071, (2R,6S,7R,9S,13aS,14aR,16aS,Z)-6-(3-(tert-butyl)ureido)-N-(cyclopropylsulfonyl)-2-((3-ethyl-4-oxo-3,4-dihydrophthalazin-1-yl)oxy)-7,9-dimethyl-5,16-dioxo-1,2,3,5,6,7,8,9,10,11,13a,14,14a,15,16,16a-hexadecahydrocyclopropa[e]pyrrolo[1,2-a][1,4]diazacyclopentadecine-14a-carboxamide] | > 87.4 | > 87.4 | ≥ 1000 | 1000
COc1ccc2c(O[C@@H]3C[C@H]4C(=O)N[C@]5(C(=O)NS(=O)(=O)C6(F)CC6)C[C@H]5/C=C\CC[C@@H](C)C[C@@H](C)[C@H](NC(=O)C(C)(C)C)C(=O)N4C3)nccc2c1 [Compound 4015] | < 5.46 | < 5.46 |  | 
CCOc1nnc(O[C@@H]2C[C@H]3C(=O)N[C@]4(C(=O)NS(=O)(=O)C5(C)CC5)C[C@H]4/C=C\CC[C@H](C)C[C@@H](CC)[C@H](NC(=O)OC(C)(C)C)C(=O)N3C2)c2ccccc12 [Compound 5046, tert-butyl ((2R,6S,7R,9S,13aS,14aR,16aS,Z)-2-((4-ethoxyphthalazin-1-yl)oxy)-7-ethyl-9-methyl-14a-(((1-methylcyclopropyl)sulfonyl)carbamoyl)-5,16-dioxo-1,2,3,5,6,7,8,9,10,11,13a,14,14a,15,16,16a-hexadecahydrocyclopropa[e]pyrrolo[1,2-a][1,4]diazacyclopentadecin-6-yl)carbamate] | 4.82 to 103 | < 5.46 |  | 
COc1cc2nc(C(F)(F)F)c(OC)nc2cc1O[C@@H]1C[C@H]2C(=O)N[C@]3(C(=O)NS(=O)(=O)C4(C)CC4)C[C@H]3/C=C\CC[C@@H](C)C[C@@H](C)[C@H](NC(=O)OC(C)(C)C)C(=O)N2C1 [Compound 4351, tert-butyl ((2R,6S,7R,9R,13aS,14aR,16aS,Z)-2-((3,7-dimethoxy-2-(trifluoromethyl)quinoxalin-6-yl)oxy)-7,9-dimethyl-14a-(((1-methylcyclopropyl)sulfonyl)carbamoyl)-5,16-dioxo-1,2,3,5,6,7,8,9,10,11,13a,14,14a,15,16,16a-hexadecahydrocyclopropa[e]pyrrolo[1,2-a][1,4]diazacyclopentadecin-6-yl)carbamate] | 5.01 to 35 | 1.01 to 5 |  | 
COc1nnc(O[C@@H]2C[C@H]3C(=O)N[C@]4(C(=O)NS(=O)(=O)C5CC5)C[C@H]4/C=C\CC[C@@H](C)C[C@@H](C)[C@H](NC(=O)OC(C)(C)C(F)(F)F)C(=O)N3C2)c2ccccc12 [Compound 5006, 1,1,1-trifluoro-2-methylpropan-2-yl((2R,6S,7R,9R,13aS,14aR,16aS,Z)-14a-((cyclopropylsulfonyl)carbamoyl)-2-((4-methoxyphthalazin-1-yl)oxy)-7,9-dimethyl-5,16-dioxo-1,2,3,5,6,7,8,9,10,11,13a,14,14a,15,16,16a-hexadecahydrocyclopropa[e]pyrrolo[1,2-a][1,4]diazacyclopentadecin-6-yl)carbamate] | < 5.46 | < 5.46 |  | 
CCOc1cc2ccccc2c(O[C@@H]2C[C@H]3C(=O)N[C@]4(C(=O)NS(=O)(=O)C5(CF)CC5)C[C@H]4/C=C\CC[C@@H](C)C[C@@H](C)[C@H](NC(=O)OC(C)(C)C)C(=O)N3C2)n1 [Compound 6108, tert-butyl ((2R,6S,7R,9R,13aS,14aR,16aS,Z)-2-((3-ethoxyisoquinolin-1-yl)oxy)-14a-(((1-(fluoromethyl)cyclopropyl)sulfonyl)carbamoyl)-7,9-dimethyl-5,16-dioxo-1,2,3,5,6,7,8,9,10,11,13a,14,14a,15,16,16a-hexadecahydrocyclopropa[e]pyrrolo[1,2-a][1,4]diazacyclopentadecin-6-yl)carbamate] | 0.51 to 1 | 0.1 to 0.5 |  | 
CC[C@@H]1C[C@H](C)CC/C=C\[C@@H]2C[C@@]2(C(=O)NS(=O)(=O)C2(CF)CC2)NC(=O)[C@@H]2C[C@@H](Oc3nccc4c5c(ccc34)OCCO5)CN2C(=O)[C@H]1NC(=O)OC(C)(C)C(C)(F)F [Compound 5461, 3,3-difluoro-2-methylbutan-2-yl((2R,6S,7R,9R,13aS,14aR,16aS,Z)-2-((2,3-dihydro-[1,4]dioxino[2,3-f]isoquinolin-7-yl)oxy)-7-ethyl-14a-(((1-(fluoromethyl)cyclopropyl)sulfonyl)carbamoyl)-9-methyl-5,16-dioxo-1,2,3,5,6,7,8,9,10,11,13a,14,14a,15,16,16a-hexadecahydrocyclopropa[e]pyrrolo[1,2-a][1,4]diazacyclopentadecin-6-yl)carbamate] | 1.01 to 5 | 1.01 to 5 |  | 
CCCOc1ccc2c(O[C@@H]3C[C@H]4C(=O)N[C@]5(C(=O)NS(=O)(=O)C6CC6)C[C@H]5/C=C\CC[C@H](C)C[C@@H](C)[C@H](NC(=O)OC(C)(C)C)C(=O)N4C3)nccc2c1 [Compound 5168, tert-butyl ((2R,6S,7R,9S,13aS,14aR,16aS,Z)-14a-((cyclopropylsulfonyl)carbamoyl)-7,9-dimethyl-5,16-dioxo-2-((6-propoxyisoquinolin-1-yl)oxy)-1,2,3,5,6,7,8,9,10,11,13a,14,14a,15,16,16a-hexadecahydrocyclopropa[e]pyrrolo[1,2-a][1,4]diazacyclopentadecin-6-yl)carbamate] | < 5.46 | < 5.46 |  | 
CC[C@@H]1C[C@@H](C)CC/C=C\[C@@H]2C[C@@]2(C(=O)NS(=O)(=O)C2(C)CC2)NC(=O)[C@@H]2C[C@@H](Oc3nccc4c5c(ccc34)OCCO5)CN2C(=O)[C@H]1NC(=O)OC(C)(C)C [Compound 5339, tert-butyl ((2R,6S,7R,9S,13aS,14aR,16aS,Z)-2-((2,3-dihydro-[1,4]dioxino[2,3-f]isoquinolin-7-yl)oxy)-7-ethyl-9-methyl-14a-(((1-methylcyclopropyl)sulfonyl)carbamoyl)-5,16-dioxo-1,2,3,5,6,7,8,9,10,11,13a,14,14a,15,16,16a-hexadecahydrocyclopropa[e]pyrrolo[1,2-a][1,4]diazacyclopentadecin-6-yl)carbamate] | 4.82 to 103 | < 5.46 |  | 
